Experimental data reported in ChEMBL document CHEMBL5543116, “Discovery of DNL343: A Potent, Selective, and Brain-Penetrant eIF2B Activator Designed for the Treatment of Neurodegenerative Diseases” (J Med Chem, 2024).
In brackets after ≈: the same amount, converted by molar mass.

Key:
[1] = Lipophilicity, log D of the compound at pH 7.4; format: physicochemical; details: buffer
[2] = Kinetic solubility of compound; format: physicochemical; details: read-out: Kinetic_solubility
[3] = Metabolic stability in human liver microsome assessed as hepatic clearance; format: ADME; details: liver microsomes
[4] = Metabolic stability in rat liver microsome assessed as hepatic clearance; format: ADME; details: liver microsomes
[5] = Clearance in rat at 1 mg/kg, iv by LC-MS/MS analysis; format: ADME, organism-based; details: in vivo
[6] = Volume of distribution at steady state in rat at 1 mg/kg, iv by LC-MS/MS analysis; format: ADME, organism-based; details: in vivo, read-out: Vdss
[7] = Half life in rat at 1 mg/kg, iv by LC-MS/MS analysis; format: ADME, organism-based; details: in vivo
[8] = Oral bioavailability in rat at 3 mg/kg by LC-MS/MS analysis; format: ADME, organism-based; details: in vivo

logD [1] | solubility kinetic [2] [µM] | CLhep predicted [3] [L/h/kg] | Structure (SMILES) | other results
3.7 | < 1 | – | O=C(COc1ccc(Cl)cc1)N[C@H]1CC[C@H](NC(=O)COc2ccc(Cl)cc2)CC1 | –
– | – | < 0.36 | O=C(NC12CC(c3nnc([C@H]4C[C@@H](OC(F)(F)F)C4)o3)(C1)C2)c1nc2cc(Cl)ccc2o1 | –
– | – | < 0.36 | O=C(COc1ccc(C(F)(F)F)cc1)NC12CC(c3nnc([C@H]4C[C@@H](OC(F)(F)F)C4)o3)(C1)C2 | CLhep predicted [4]: < 1.02 L/h/kg; clearance [5]: 0.024 L/h/kg; Vd [6]: 0.26 L/kg; half-life [7]: 22.9 h; bioavailability [8]: 39%
2.9 | 141 (≈ 53.4 µg/mL) | – | O=C(COc1ccc(Cl)cc1)NC12CC(NC(=O)COC3CCC3)(C1)C2 | –
4.6 | < 1 | – | O=C(COc1ccc(Cl)cc1)NC12CCC(NC(=O)COc3ccc(Cl)cc3)(CC1)C2 | –
– | – | 0.9 | O=C(COc1ccc(Cl)c(F)c1)NC12CC(N3C[C@H]([C@H]4C[C@@H](OC(F)(F)F)C4)OC3=O)(C1)C2 | –
– | – | 0.66 | O=C(NC12CC(c3nnc([C@H]4C[C@@H](OC(F)(F)F)C4)o3)(C1)C2)c1cnc2cc(Cl)ccc2c1 | –
2.6 | 181 (≈ 66 µg/mL) | – | O=C(COc1ccc(Cl)cc1)NC12CC(NC(=O)COC3CC3)(C1)C2 | –
2.9 | 184 (≈ 69.7 µg/mL) | – | O=C(COCC1CC1)NC12CC(NC(=O)COc3ccc(Cl)cc3)(C1)C2 | –
– | – | 0.72 | O=C(NC12CC(c3nnc([C@H]4C[C@@H](OC(F)(F)F)C4)o3)(C1)C2)C1CCc2cc(Cl)ccc2O1 (stereo not given in full) | –
